According to article PMC12652692, “Synthesis and In Vitro Anticancer Evaluation of Novel Phosphonium Derivatives of Chrysin” (International Journal of Molecular Sciences, 2025):

test system: 60 human cancer cell lines; test: NCI60 five-dose screen, overall mean; format: cell-based; conditions: mean over all 60 cell lines
Method: Since all new conjugates (3a–h) had notable antiproliferative activities on several tumor cell lines in the course of the one-dose screening, they were subjected to a five-dose test. […] J. Mol. Sci. 2025, 26, 11063 10 of 10 S.3. NCI60 Screening A detailed description of the NCI screening procedures can also be found on the website of NCI [39], and in our previous work. S.3.1. One-Dose Screen All candidates were examined at first at a single high dose (10 μM) in the full NCI60 cell panel. The value reported for the one-dose test is growth relative to the no-drug control and relative to the time zero number of cells. This made possible the disclosure of both growth inhibition (numbers between 0 and 100) and lethality (numbers less than 0). For example, a value of 100 means no growth inhibition. A value of 20 would mean 80% growth inhibition. A value of 0 means no net growth over the course of the analysis. A value of −20 would mean 20% lethality. A value of −100 means all cells are dead. S.3.2. […] The human tumor cell lines of the cancer screening panel were grown in RPMI 1640 medium containing 5% fetal bovine serum and 2 mM l-glutamine. Characteristically, cells were injected in 96-well microtiter plates in 0.1 mL at plating densities ranging from 5000 to 40,000 cells/well, depending on the doubling time of individual cell lines. After cell inoculation, the microtiter plates were incubated at 37 °C, 5% carbon dioxide, 95% air, and 100% relative humidity for 24 hours before the addition of tested compounds. After 24 hours, 2 plates of each cell line were fixed in situ with Cl3COOH (TCA), to represent a measurement of the cell population for each cell line at the time of drug addition (tz). Tested compounds were solubilized in DMSO at 400-fold the desired final maximum test concentration and stored frozen before application. In the course of the drug addition, an aliquot of frozen concentrate was thawed and diluted to twice the desired final maximum test concentration with a complete medium containing 50 μg mL−1 gentamicin. Additional four, 10-fold or ½ log serial dilutions were produced to furnish a total of five drug concentrations plus control. Aliquots of 0.1 mL of these different drug dilutions were added to the appropriate microtiter wells already containing 0.1 mL of medium, resulting in the required final drug concentrations. Following drug addition, the plates were incubated at 37 °C, 5% carbon dioxide, 95% air, and 100% relative humidity for an additional 48 hours. For adherent cells, the test was finished by the addition of cold Cl3COOH. Cells were fixed in situ by the addition of 50 μL of cold 50% (w/v) Cl3COOH, and incubated at 4 °C for 1 hour. The supernatant was discarded, and the plates were washed with H2O (5×) and dried in air. Sulforhodamine B (SRB) solution (0.1 mL) at 0.4% (w/v) in 1% CH3COOH was added to each well, and plates were incubated at RT for 10 min. After staining, the unbound dye was removed by washing five times with 1% CH3COOH, and the plates were dried in the air. The bound stain is afterward solubilized with a 10 mM trizma base, and the absorbance is read on an automated plate reader at λ = 515 nm. Utilizing the seven absorbance measurements [time zero (tz), control growth (c), and test growth in the presence of the drug at the five concentration levels (ti)], the percentage growth was determined at each of the drug concentration levels. Growth inhibition (%) was calculated as: [(ti − tz)/(c − tz)] × 100, for concentrations where ti ≥ tz (1) [(ti − tz)/(tz)] × 100, for concentrations where ti < tz. (2) Three dose‒response parameters were calculated as follows. GI50 (growth inhibition of 50%) was determined from Equation (3), which is the drug concentration resulting in a 50% reduction in the net protein increase (as measured by SRB staining) in control cells in the course of the drug incubation. [(ti − tz)/(c − tz)] × 100 = 50 (3)

First: O=c1cc(-c2ccccc2)oc2cc(OCCCC[P+](c3ccccc3)(c3ccccc3)c3ccccc3)cc(O)c12 [3a]
Second: O=c1cc(-c2ccccc2)oc2cc(OCCCC[P+](c3ccccc3)(c3ccccc3)c3ccccn3)cc(O)c12 [3h]
The GI50 of the first is 2.1-fold lower: 455 nM for the first, 949 nM for the second.

Compared with Cc1ccc([P+](CCCCOc2cc(O)c3c(=O)cc(-c4ccccc4)oc3c2)(c2ccc(C)cc2)c2ccc(C)cc2)cc1 [3b], O=c1cc(-c2ccccc2)oc2cc(OCCCC[P+](c3ccc(F)cc3)(c3ccc(F)cc3)c3ccc(F)cc3)cc(O)c12 [3d] is 6.4-fold higher in GI50: 322 nM for the first, 2050 nM for the second.

COc1ccc([P+](CCCCOc2cc(O)c3c(=O)cc(-c4ccccc4)oc3c2)(c2ccc(OC)cc2)c2ccc(OC)cc2)cc1 [3c] and Cc1ccccc1[P+](CCCCOc1cc(O)c2c(=O)cc(-c3ccccc3)oc2c1)(c1ccccc1C)c1ccccc1C [3g] are within 1.5-fold of each other in GI50: 565 nM for the first, 437 nM for the second.

Compared with O=c1cc(-c2ccccc2)oc2cc(OCCCC[P+](C3CCCCC3)(C3CCCCC3)C3CCCCC3)cc(O)c12 [3e], COc1c(C)cc([P+](CCCCOc2cc(O)c3c(=O)cc(-c4ccccc4)oc3c2)(c2cc(C)c(OC)c(C)c2)c2cc(C)c(OC)c(C)c2)cc1C [3f] is 3.1-fold lower in GI50: 957 nM for the first, 312 nM for the second.
